Results on 14 compounds are retold here after PubChem BioAssay (NCI).

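All cell lines were grown in 96-well plates and treated with compound for 48 hours. GI50 = concentration required for 50% inhibition of growth. The concentration for full growth arrest is given as TGI.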 Some results are limits rather than exact numbers.

Assay in all cases: DTP human tumour cell line panel, 48 h
For assay [1], the system named is COLO 205 colon.
The subject of assay [2] is SN12C renal.
Assay [3] relates to RPMI-8226 leukemia.
Assay [4] deals with NCI-H23 lung.
Assay [5] has as its system OVCAR-5 ovarian.
Assay [6] relates to PC-3 prostate.
For assay [7], the system named is HOP-62 NSCLC.
The subject of assay [8] is M14 melanoma.
Assay [9] deals with UO-31 renal.
Assay [10] relates to SNB-75 CNS.

Consider `O=C1CC[C@@]2(O)[C@H]3Cc4ccc(-c5ccccc5)c5c4[C@@]2(CCN3CC2CC2)[C@H]1O5`, for which the TGI in [1] came out at 35 µM; in assay [2] it was 72.4 µM; in assay [3], 47.8 µM; in assay [4], 78.9 µM; in assay [5], 35.4 µM; in [6], 46.7 µM. Besides, the results for the TGI in assay [7], in [8] and in assay [9] were 40.6 µM, 34 µM and 32.2 µM, respectively.

Turning to `COc1c(-c2nc3nc(N4CCN(C)CC4)ccc3[nH]2)cc(OC)c2c1nc(COC(C)=O)n2C`, the TGI in assay [1], in assay [2], in [4], in assay [5], in [6] and in [7] was above 100 µM throughout. Further, the TGI in assay [8] and in assay [9] was above 100 µM each time.

With `COC(=O)N[C@H](C(=O)O)C(C)O[Si](C)(C)C(C)(C)C` (some centres not stated), the TGI in assay [1], in assay [2], in [3], in [4], in [5] and in assay [6] was above 100 µM throughout. The TGI in assay [7] and in assay [9] was above 100 µM in each case.

`Cc1cc(S(=O)(=O)Nc2nc3ccccc3nc2-c2ccc(Cl)cc2)c(S)cc1Cl`: the TGI in assay [1] was found to be 30.2 µM; in assay [2] it was 56.7 µM; in [3] it was 68.5 µM; in assay [4], 33.4 µM; in assay [5], 33.8 µM; in assay [6], 34.3 µM. The TGI was determined as 46.7 µM in assay [7], 39.5 µM in assay [8] and 30.1 µM in [9].

`CSc1ccn(C2CC(F)C(CO)O2)c(=O)n1` (configuration not stated): the TGI in assay [10], in assay [1], in assay [2], in [4], in assay [5] and in assay [6] was above 100 µM each time. The TGI in assay [7], in assay [8] and in assay [9] was above 100 µM in each case.

Regarding `c1csc(-c2ccsc2-c2cccs2)c1`, the total growth inhibition concentration (TGI) was above 100 µM in [10]; above 100 µM in assay [1]; above 100 µM in assay [2]; 66.8 µM in [3]; 49.7 µM in assay [4]; above 100 µM in [5]. Besides, the TGI in [7], in assay [8] and in assay [9] was above 100 µM throughout.

With `C=C1C(=O)O[C@@H]2[C@H](O)[C@@H](C)[C@@H]3C=CC(=O)[C@@]3(C)[C@@H](OC(=O)/C(C)=C/C)[C@H]12`, the concentration for total growth inhibition (TGI) in assay [10] was found to be 3.63 µM; in [1], 1.11 µM; in assay [2], 2.52 µM; in assay [3] it was 0.473 µM; in [4] it was 2.57 µM; in assay [5], 8.31 µM. Also, the concentration for total growth inhibition (TGI) in assay [7] worked out at 15.3 µM; in [9], 10.1 µM.

As for `CCOC(=O)C(Cc1ccc(OC(=O)OC(C)(C)C)cc1)NC(=O)OC(C)(C)C` (configuration not stated), the total growth inhibition concentration (TGI) in assay [10] is 62.6 µM; in assay [1], above 100 µM; in assay [2], above 100 µM; in assay [4], above 100 µM; in assay [5], above 100 µM; in [6], above 100 µM. Moreover, the TGI in assay [7] is above 100 µM; in assay [8], 79.9 µM; in [9] it was above 100 µM.

On to `COCN1COCN=C1NC#N`, for which the TGI in [10], in assay [1], in [2], in [3], in [4] and in [5] was above 100 µM each time. Also, the concentration for total growth inhibition (TGI) in assay [7], in [8] and in assay [9] was above 100 µM in each case.

`C=C(NC(=O)C(=C)NC(=O)c1csc(C2=NC3c4csc(n4)C4NC(=O)c5csc(n5)C(C(C)(O)C(C)O)NC(=O)C5CSC(=N5)/C(=C/C)NC(=O)C(C(C)O)NC(=O)c5csc(n5)C3(CC2)NC(=O)C(C)NC(=O)C(=C)NC(=O)C(C)NC(=O)C(C(C)CC)NC2C=Cc3c(C(C)O)cc(nc3C2O)C(=O)OC4C)n1)C(N)=O` (configuration not stated): the TGI in assay [10] was above 24 µM; in assay [1], 0.836 µM; in [2], 3.93 µM; in assay [3], 6.28 µM; in [4] it was 13.7 µM; in [5] it was above 51.4 µM. Moreover, the TGI in [7] is 99.4 µM; in [8] it was 3.17 µM; in [9], above 100 µM. Also, the GI50 in assay [1] is 0.299 µM.

For the compound `COc1ccc([C@@H]2CC(=O)N2)cc1`, the TGI in assay [10], in assay [1], in [2], in assay [3], in assay [4] and in [5] was above 100 µM in each case. In addition, the total growth inhibition concentration (TGI) in [7], in [8] and in [9] was above 100 µM each time.

In the case of `O=C(c1ccccc1)C1S(=O)(=O)OCCOS1(=O)=O`, the TGI in assay [10], in assay [1], in assay [2], in assay [3], in assay [4] and in assay [7] was above 100 µM in each case. Moreover, the TGI in assay [8] and in assay [9] was above 100 µM each time.

Consider `O=C1CC(c2ccccc2)=Nc2ccccc2N1`, for which the TGI in assay [10], in assay [1], in [2], in assay [4], in assay [5] and in assay [7] was above 100 µM each time. In addition, the TGI in assay [8] and in assay [9] was above 100 µM each time.

On to `CC(C)=CCc1[nH]c2ccccc2c1C1=C(O)C(=O)C(c2c(CC=C(C)C)[nH]c3ccccc23)=C(O)C1=O`, for which the concentration for total growth inhibition (TGI) is 4.14 µM in assay [10]; 3.07 µM in assay [1]; 4.79 µM in assay [2]; 5.87 µM in assay [4]; 8.44 µM in assay [5]; 4.72 µM in assay [6]. The concentration for total growth inhibition (TGI) in assay [7] amounted to 2.61 µM; in assay [8], 15.6 µM; in assay [9], 3.14 µM.
